The values that follow come from patent publication US10287301B2 (Achillion Pharmaceuticals, Inc., priority 2015, dated 2019).

Read-outs that look alike come from different tables or passages of the source.

The experiment deals with Human Factor D (Homo sapiens (Human), UniProt P00746). In words: Human Factor D Assay. The experiment is classed as biochemical. The method in brief: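 Serum-purified human Factor D (80 nM final) was preincubated with test compound at various concentrations for 5 min at room temperature in 50 mM Tris, 1M NaCl, pH 7.5. Z-L-Lys-SBzl and DTNB were then added at 100 μM each. IC50 came from nonlinear regression of reaction rates versus compound concentration.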
Human Factor D, sequence (P00746 26-253): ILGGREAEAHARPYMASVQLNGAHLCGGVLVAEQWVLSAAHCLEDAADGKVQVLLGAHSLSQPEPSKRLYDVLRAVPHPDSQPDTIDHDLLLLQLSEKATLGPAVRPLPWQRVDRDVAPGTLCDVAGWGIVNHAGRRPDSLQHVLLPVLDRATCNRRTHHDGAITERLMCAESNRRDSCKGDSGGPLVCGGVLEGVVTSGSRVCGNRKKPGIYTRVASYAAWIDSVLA

The mark [1] stands for this setting: Human Factor D assay of Example 8, Table 2, read-out: IC50.
[2] abbreviates: Human Factor D, Table 3, read-out: IC50.
The mark [3] stands for this setting: Table 3, Human Factor D 80 nM, substrate Z-L-Lys-SBzl, read-out: IC50 (Stars).
Setting [4] is: Human Factor D 80 nM, substrate Z-L-Lys-SBzl, read-out: IC50.

By IC50 is commonly meant the midpoint of a concentration-inhibition curve. With `CC(=O)c1nn(CC(=O)N2C[C@H](F)C[C@H]2C(=O)Nc2cccc(Br)n2)c2ccc(-c3cnc4cc(C(=O)O)nn4c3)cc12` [Compound 289, 6-(3-acetyl-1-(2-((2S,4R)-2-(6-bromopyridin-2-ylcarbamoyl)-4-fluoropyrrolidin-1-yl)-2-oxoethyl)-1H-indazol-5-yl)pyrazolo[1,5-a]pyrimidine-2-carboxylic acid], the 50% inhibitory concentration (IC50) under setting [1] was less than 1 µM.

Turning to `CC(=O)c1cn(CC(=O)N2C[C@H](F)C[C@H]2C(=O)Nc2cccc(-c3ccccc3Cl)c2F)c2ccc(-c3cnc(C(=O)O)nc3)cc12` [Compound 205, 5-(3-acetyl-1-(2-((2S,4R)-2-(2′-chloro-2-fluorobiphenyl-3-ylcarbamoyl)-4-fluoropyrrolidin-1-yl)-2-oxoethyl)-1H-indol-5-yl)pyrimidine-2-carboxylic acid], the IC50 under setting [1] was less than 1 µM.

On to `CC(=O)c1nn(CC(=O)N2C[C@H](F)C[C@H]2C(=O)Nc2cncc(Br)n2)c2ccc(-c3cnc4cc(C)nn4c3)cc12` [Compound 306, (2S,4R)-1-(2-(3-acetyl-5-(2-methylpyrazolo[1,5-a]pyrimidin-6-yl)-1H-indazol-1-yl)acetyl)-N-(6-bromopyrazin-2-yl)-4-fluoropyrrolidine-2-carboxamide], for which the IC50 under setting [1] was less than 1 µM.

Turning to `CC(=O)c1nn(CC(=O)N2C[C@H]3C[C@H]3[C@H]2C(=O)Nc2nc(Br)ccc2C)c2c(C)cc(-c3cnc(C)nc3)cc12` [Compound 652, (1R,2S,5S)-3-(2-(3-Acetyl-7-methyl-5-(2-methylpyrimidin-5-yl)-1H-indazol-1-yl)acetyl)-N-(6-bromo-3-methylpyridin-2-yl)-3-azabicyclo[3.1.0]hexane-2-carboxamide], under setting [2], the IC50 was less than 1 µM.

For the compound `Cc1cccc(NC(=O)[C@@H]2[C@H]3CC[C@H](C3)N2C(=O)Cn2cc(C(N)=O)c3cc(-c4cccnc4)ccc32)n1` [Compound 501, 1-(2-((1R,3S,4S)-3-(6-Methylpyridin-2-ylcarbamoyl)-2-azabicyclo[2.2.1]heptan-2-yl)-2-oxoethyl)-5-(pyridin-3-yl)-1H-indole-3-carboxamide], the concentration for half-maximal inhibition (IC50) under setting [3] was more than 10 µM.

On to `NC(=O)c1nn(CC(=O)N2C[C@H](F)C[C@H]2C(=O)NC2CCCc3nc(-c4ccc(F)cc4)sc32)c2ccc(-c3ccnnc3)cc12` (stereo partly drawn) [Compound 107, 1-(2-((2S,4R)-4-fluoro-2-(2-(4-fluorophenyl)-4,5,6,7-tetrahydrobenzo[d]thiazol-7-ylcarbamoyl)pyrrolidin-1-yl)-2-oxoethyl)-5-(pyridazin-4-yl)-1H-indazole-3-carboxamide], for which the IC50 under setting [4] is more than 10 µM.

On to `CC(=O)c1nn(CC(=O)N2CCC[C@H]2C(=O)Nc2cccc(C)n2)c2ccc(-c3ccc4ccccc4c3)cc12` [Compound 585, (S)-1-(2-(3-Acetyl-5-(naphthalen-2-yl)-1H-indazol-1-yl)acetyl)-N-(6-methylpyridin-2-yl)pyrrolidine-2-carboxamide], for which, under setting [2], the IC50 was more than 10 µM.

For the compound `CNc1ncc(-c2ccc3c(c2)c(C(C)=O)cn3CC(=O)N2C[C@H](F)C[C@H]2C(=O)Nc2cccc(-c3ccccc3Cl)c2F)cn1` [Compound 188, (2S,4R)-1-(2-(3-acetyl-5-(2-(methylamino)pyrimidin-5-yl)-1H-indol-1-yl)acetyl)-N-(2′-chloro-2-fluorobiphenyl-3-yl)-4-fluoropyrrolidine-2-carboxamide], the IC50 under setting [4] is less than 1 µM.

As for `NC(=O)c1nn(CC(=O)N2C[C@H](F)C[C@H]2C(=O)Nc2cc(O)ccn2)c2ccc(-c3ccnnc3)cc12` [Compound 154, 1-(2-((2S,4R)-4-fluoro-2-(4-hydroxypyridin-2-ylcarbamoyl)pyrrolidin-1-yl)-2-oxoethyl)-5-(pyridazin-4-yl)-1H-indazole-3-carboxamide], the IC50 under setting [4] was more than 10 µM.

`CC(=O)c1nn(CC(=O)N2[C@H](C(=O)NCC(F)=C(C)C)C[C@@]3(C)C[C@@H]23)c2ccc(-c3cnc(C)nc3)cc12` [Compound 621, (1R,3S,5R)-2-(2-(3-acetyl-5-(2-methylpyrimidin-5-yl)-1H-indazol-1-yl)acetyl)-N-(2-fluoro-3-methylbut-2-en-1-yl)-5-methyl-2-azabicyclo[3.1.0] hexane-3-carboxamide]: the 50% inhibitory concentration (IC50) under setting [2] is less than 1 µM.

Regarding `CC(=O)c1nn(CC(=O)N2C[C@H](F)C[C@H]2C(=O)Nc2ccn(-c3ccc(F)cn3)n2)c2ccc(-c3cnc(C)nc3)cc12` [Compound 479, (2S,4R)-1-(2-(3-acetyl-5-(2-Methylpyrimidin-5-yl)-1H-indazol-1-yl)acetyl)-4-fluoro-N-(1-(5-fluoropyridin-2-yl)-1H-pyrazol-3-yl)pyrrolidine-2-carboxamide], the IC50 under setting [3] is less than 1 µM.

`CSc1ncc(-c2ccc3c(c2)c(C(C)=O)nn3CC(=O)N2C[C@H](F)C[C@H]2C(=O)Nc2cccc(Br)n2)cn1` [Compound 531, (2S,4R)-1-(2-(3-Acetyl-5-(2-(methylthio)pyrimidin-5-yl)-1H-indazol-1-yl)acetyl)-N-(6-bromopyridin-2-yl)-4-fluoropyrrolidine-2-carboxamide]: under setting [3], the IC50 was less than 1 µM.

For the compound `CC(=O)c1nn(CC(=O)N2C[C@H](F)C[C@H]2C(=O)NC2CCN(C(=O)c3cc(Cl)c[nH]3)CC2)c2ccc(-c3cnc(C)nc3)cc12` [Compound 232, (2S,4R)-1-(2-(3-acetyl-5-(2-methylpyrimidin-5-yl)-1H-indazol-1-yl)acetyl)-N-(1-(4-chloro-1H-pyrrole-2-carbonyl)piperidin-4-yl)-4-fluoropyrrolidine-2-carboxamide], the IC50 under setting [1] was less than 1 µM.

Turning to `CC(=O)c1nn(CC(=O)N2[C@@H]3C[C@@H]3C[C@H]2C(=O)NC/C(F)=C(\C)c2ccccc2Cl)c2ccc(-c3cnc(C)nc3)cc12` [Compound 528], the IC50 under setting [3] was less than 1 µM.

In the case of `COc1ncc(-c2ccc3c(c2)c(C(C)=O)nn3CC(=O)N2C[C@H](F)C[C@H]2C(=O)Nc2ccc(F)c(Br)n2)cn1` [Compound 450, (2S,4R)-1-(2-(3-Acetyl-5-(2-methoxypyrimidin-5-yl)-1H-indazol-1-yl)acetyl)-N-(6-bromo-5-fluoropyridin-2-yl)-4-fluoropyrrolidine-2-carboxamide], the IC50 under setting [3] is less than 1 µM.

Turning to `CC(=O)c1nn(CC(=O)N2C[C@H](F)C[C@H]2C(=O)Nc2cccc(-c3c(F)c(F)c(F)c(F)c3F)c2F)c2ccc(-c3cnc(C)nc3)cc12` [Compound 272, (2S,4R)-1-(2-(3-acetyl-5-(2-methylpyrimidin-5-yl)-1H-indazol-1-yl)acetyl)-4-fluoro-N-(2,2′,3′,4′,5′,6′-hexafluorobiphenyl-3-yl)pyrrolidine-2-carboxamide], the IC50 under setting [1] is less than 1 µM.

Regarding `CC(=O)c1nn(CC(=O)N2C[C@H](F)C[C@H]2C(=O)Nc2cccc(Br)n2)c2cc(C)c(-c3cnc(C)nc3)cc12` [Compound 609, (2S,4R)-1-(2-(3-Acetyl-6-methyl-5-(2-methylpyrimidin-5-yl)-1H-indazol-1-yl)acetyl)-N-(6-bromopyridin-2-yl)-4-fluoropyrrolidine-2-carboxamide], the IC50 under setting [2] is less than 1 µM.

As to `CC(=O)c1nn(CC(=O)N2CC(=O)C[C@H]2C(=O)Nc2cccc(Br)n2)c2ccc(-c3cnc(C)nc3)cc12` [Compound 250, (S)-1-(2-(3-Acetyl-5-(2-methylpyrimidin-5-yl)-1H-indazol-1-yl)acetyl)-N-(6-bromopyridin-2-yl)-4-oxopyrrolidine-2-carboxamide], the half-maximal inhibitory concentration (IC50) under setting [1] is less than 1 µM.

With `CC(=O)c1cn(CC(=O)N2C[C@H](F)C[C@H]2C(=O)Nc2cccc(OC(F)(F)F)n2)c2ccc(-c3cnc4cc(C)nn4c3)cc12` [Compound 656, (2S,4R)-1-(2-(3-Acetyl-5-(2-methylpyrazolo[1,5-a]pyrimidin-6-yl)-1H-indol-1-yl)acetyl)-4-fluoro-N-(6-(trifluoromethoxy)pyridin-2-yl)pyrrolidine-2-carboxamide], under setting [2], the IC50 was less than 1 µM.

In the case of `CC(=O)c1nn(CC(=O)N2C[C@H](F)C[C@H]2C(=O)Nc2ccn(CC(F)(F)F)n2)c2ccc(-c3cnc4cc(C)nn4c3)cc12` [Compound 678, (2S,4R)-1-(2-(3-acetyl-5-(2-methylpyrazolo[1,5-a]pyrimidin-6-yl)-1H-indazol-1-yl)acetyl)-4-fluoro-N-(1-(2,2,2-trifluoroethyl)-1H-pyrazol-3-yl)pyrrolidine-2-carboxamide], the IC50 under setting [2] is less than 1 µM.

For the compound `CC(=O)c1nn(CC(=O)N2C[C@H](F)C[C@H]2C(=O)Nc2ccc(F)c(Br)n2)c2ccc(-c3cnc(N)nc3)cc12` [Compound 451, (2S,4R)-1-(2-(3-Acetyl-5-(2-aminopyrimidin-5-yl)-1H-indazol-1-yl)acetyl)-N-(6-bromo-5-fluoropyridin-2-yl)-4-fluoropyrrolidine-2-carboxamide], the IC50 under setting [3] is less than 1 µM.

Consider `CC(=O)c1nn(CC(=O)N2C[C@H](F)C[C@H]2C(=O)NC2(C#N)CC2)c2ccc(-c3cnc(C)nc3)cc12` [Compound 739, (2S,4R)-1-(2-(3-acetyl-5-(2-methylpyrimidin-5-yl)-1H-indazol-1-yl)acetyl)-N-(1-cyanocyclopropyl)-4-fluoropyrrolidine-2-carboxamide], for which, under setting [2], the IC50 is less than 1 µM.

With `CC(=O)c1nn(CC(=O)N2C[C@H](F)C[C@H]2C(=O)Nc2cccc(Br)n2)c2ccc(-c3cnc(NS(C)(=O)=O)nc3)cc12` [Compound 556, (2S,4R)-1-(2-(3-Acetyl-5-(2-(methylsulfonamido)pyrimidin-5-yl)-1H-indazol-1-yl)acetyl)-N-(6-bromopyridin-2-yl)-4-fluoropyrrolidine-2-carboxamide], the IC50 under setting [2] was less than 1 µM.

As for `CC(=O)c1nn(CC(=O)N2C[C@H](F)C[C@H]2C(=O)Nc2cccc(Br)n2)c2ccc(-c3cnc(COC(=O)N(C)C)nc3)cc12` [Compound 555, (5-(3-Acetyl-1-(2-((2S,4R)-2-((6-bromopyridin-2-yl)carbamoyl)-4-fluoropyrrolidin-1-yl)-2-oxoethyl)-1H-indazol-5-yl)pyrimidin-2-yl)methyl dimethylcarbamate], the concentration for half-maximal inhibition (IC50) under setting [2] was less than 1 µM.
